Values quoted from earlier work in article PMC11678425, “(-)-Syringaresinol Exerts an Antidepressant-like Activity in Mice by Noncompetitive Inhibition of the Serotonin Transporter” (Pharmaceuticals, 2024).

How the values were obtained:
5-HT1A receptor = tested on: 5-HT1A receptor; design: method as in PMID 27508501; conditions: higher potency than its inhibition of SERT activity; cited from earlier work
[1] = design: method as in PMID 21869687, PMID 25500685; conditions: clinically observed; cited from earlier work

In the case of `N#Cc1ccc2[nH]cc(CCCCN3CCN(c4ccc5oc(C(N)=O)cc5c4)CC3)c2c1` [vilazodone], the “action at 5-HT1A receptor” value (5-HT1A receptor) is given as “partial agonist”, the sexual dysfunction [1] is given as “not associated with sexual dysfunction” and the weight gain [1] is given as “reduce weight gain”.
